From ChEMBL document CHEMBL4177666, “Compound design guidelines for evading the efflux and permeation barriers of Escherichia coli with the oxazolidinone class of antibacterials: Test case for a general approach to improving whole cell Gram-negative activity” (Bioorg Med Chem Lett, 2017)
≈ marks a conversion by molar mass, not a printed value.

Experiments:
Assay type in all cases: functional
Escherichia coli [1] = assay: Antibacterial activity against gram-negative Escherichia coli MG1655 expressing AcrAB-TolC efflux pump deletion mutant by CLSI broth microdilution method
Escherichia coli [2] = assay: Permeability index, ratio of MIC for wild type Escherichia coli MG1655 to MIC for Escherichia coli MG1655 membrane permeabilized mutant in presence of polymyxinnonapeptide
Escherichia coli [3] = assay: Efflux index, ratio of MIC for wild type Escherichia coli MG1655 to MIC for Escherichia coli MG1655 expressing AcrAB-TolC efflux pump deletion mutant
Escherichia coli [4] = assay: Antibacterial activity against gram-negative wild type Escherichia coli MG1655 by CLSI broth microdilution method
Staphylococcus aureus = assay: Antibacterial activity against methicillin-susceptible Staphylococcus aureus ATCC 29213 by CLSI broth microdilution method
Escherichia coli [5] = assay: Antibacterial activity against gram-negative Escherichia coli MG1655 membrane permeabilized mutant in presence of polymyxinnonapeptide by CLSI broth microdilution method
Bacterial 70S ribosome = assay: Inhibition of protein synthesis in Escherichia coli ribosomes incubated for 1 hr at 37 degC by SDS-PAGE and Gaussia luciferase reporter gene assay

Molecule `NCc1ccc(-c2ccc(N3C[C@H](CNC(=O)C(F)F)OC3=O)cc2F)cc1` has an MIC (Escherichia coli [1]) of 4 µg/mL (≈ 10.2 µM), a Ratio (Escherichia coli [2]) of 4 and a Ratio (Escherichia coli [3]) of 32. It also gave an MIC (Escherichia coli [4]) of 128 µg/mL (≈ 325 µM), an MIC (Staphylococcus aureus) of 2 µg/mL (≈ 5.08 µM) and an MIC (Escherichia coli [5]) of 32 µg/mL.

In the case of `NCc1ccc(-c2ccc(N3C[C@H](Cn4nncc4CO)OC3=O)cc2F)cc1`, the MIC (Escherichia coli [4]) is reported as > 256 µg/mL and the MIC (Staphylococcus aureus) is reported as > 64 µg/mL.

`NC[C@H]1CN(c2ccc(-c3ccc(F)c(O)c3)c(F)c2)C(=O)O1` showed an MIC (Escherichia coli [1]) of 256 µg/mL (≈ 799 µM), a Ratio (Escherichia coli [2]) of 1 and a Ratio (Escherichia coli [3]) of 1. It also gave an MIC (Escherichia coli [4]) of 256 µg/mL (≈ 799 µM), an MIC (Staphylococcus aureus) of 64 µg/mL (≈ 200 µM) and an MIC (Escherichia coli [5]) of 256 µg/mL.

With `O=C(O)c1ccc(N2C[C@H](CO)OC2=O)cc1F` the MIC (Escherichia coli [4]) was > 256 µg/mL and the MIC (Staphylococcus aureus) was > 64 µg/mL.

`NCc1ccc(-c2ccc(N3C[C@H](CO)OC3=O)cc2O)cc1` was tested, and the MIC (Escherichia coli [4]) was > 256 µg/mL and the MIC (Staphylococcus aureus) was > 64 µg/mL.

With `Nc1cc(-c2ccc(N3C[C@H](CNC(=O)C(F)(F)F)OC3=O)cc2F)ccn1` the MIC (Escherichia coli [1]) was 8 µg/mL (≈ 20.1 µM), the Ratio (Escherichia coli [2]) was “>=4” and the Ratio (Escherichia coli [3]) was “>=8”. The MIC (Escherichia coli [4]) was > 32 µg/mL, the MIC (Staphylococcus aureus) was 4 µg/mL (≈ 10 µM) and the MIC (Escherichia coli [5]) was 16 µg/mL.

`O=C1O[C@@H](CO)CN1c1ccc(-c2cc(O)c(F)cc2F)cc1` was tested, and the MIC (Escherichia coli [1]) was 32 µg/mL (≈ 99.6 µM), the Ratio (Escherichia coli [2]) was >4 and the Ratio (Escherichia coli [3]) was >8. For the same molecule, the MIC (Escherichia coli [4]) was > 256 µg/mL, the MIC (Staphylococcus aureus) was 4 µg/mL (≈ 12.5 µM) and the MIC (Escherichia coli [5]) was 64 µg/mL.

`COc1ccccc1-c1ccc(N2C[C@H](CO)OC2=O)cc1` was tested, and the MIC (Escherichia coli [4]) was > 64 µg/mL and the MIC (Staphylococcus aureus) was 64 µg/mL (≈ 214 µM).

`NCCC#Cc1ccc(N2C[C@H](CO)OC2=O)cc1F` was tested, and the MIC (Escherichia coli [4]) was > 256 µg/mL and the MIC (Staphylococcus aureus) was > 64 µg/mL.

In the case of `N/C(=N\O)c1ccc(-c2ccc(N3C[C@H](CO)OC3=O)cc2F)cc1O`, the Ratio (Escherichia coli [2]) is reported as 2 and the Ratio (Escherichia coli [3]) is reported as 1.

`NC(/C=C/c1ccc(N2C[C@H](CO)OC2=O)cc1F)=N\O` was tested, and the MIC (Escherichia coli [4]) was > 128 µg/mL and the MIC (Staphylococcus aureus) was > 64 µg/mL.

`NCc1ccc(-c2ccc(N3C[C@H](C(=O)O)OC3=O)cc2F)cc1` was tested, and the MIC (Escherichia coli [4]) was > 256 µg/mL and the MIC (Staphylococcus aureus) was > 64 µg/mL.

`NCc1ccc(-c2ccc(N3C[C@H](Cn4cc(CO)nn4)OC3=O)cc2F)cc1` showed an MIC (Escherichia coli [1]) of 64 µg/mL (≈ 161 µM), a Ratio (Escherichia coli [2]) of 2 and an MIC (Escherichia coli [4]) of 256 µg/mL (≈ 644 µM). For the same molecule, the MIC (Staphylococcus aureus) was 16 µg/mL (≈ 40.3 µM) and the MIC (Escherichia coli [5]) was 128 µg/mL.

In the case of `O=C1O[C@@H](CO)CN1c1ccc(-c2cc(O)ccc2F)cc1`, the MIC (Escherichia coli [1]) is reported as 16 µg/mL (≈ 52.8 µM), the Ratio (Escherichia coli [2]) is reported as >8 and the Ratio (Escherichia coli [3]) is reported as >16. The MIC (Escherichia coli [4]) was > 256 µg/mL, the MIC (Staphylococcus aureus) was 1 µg/mL (≈ 3.3 µM) and the MIC (Escherichia coli [5]) was 32 µg/mL.

In the case of `O=C1O[C@@H](CNC(=O)C(F)(F)F)CN1c1ccc(-c2ccc(F)c(O)c2)c(F)c1`, the MIC (Escherichia coli [1]) is reported as 256 µg/mL (≈ 615 µM), the Ratio (Escherichia coli [2]) is reported as >2 and the Ratio (Escherichia coli [3]) is reported as >2. The MIC (Escherichia coli [4]) was > 256 µg/mL, the MIC (Staphylococcus aureus) was 32 µg/mL (≈ 76.9 µM) and the MIC (Escherichia coli [5]) was 256 µg/mL.

`O=C1O[C@@H](CO)CN1c1ccc(-c2ccc(N3C[C@@H](CO)OC3=O)nc2)c(F)c1` was tested, and the MIC (Escherichia coli [4]) was > 128 µg/mL and the MIC (Staphylococcus aureus) was 32 µg/mL (≈ 79.3 µM).

`CCOc1cn(C[C@H]2CN(c3ccc(-c4ccc(CN)cc4)c(F)c3)C(=O)O2)nn1` was tested, and the MIC (Escherichia coli [1]) was 32 µg/mL (≈ 77.8 µM), the Ratio (Escherichia coli [3]) was >4 and the MIC (Escherichia coli [4]) was > 64 µg/mL. The MIC (Staphylococcus aureus) was 16 µg/mL (≈ 38.9 µM).

In the case of `N/C(=N\O)c1ccc(-c2ccc(N3C[C@H](CO)OC3=O)cc2)cc1`, the MIC (Escherichia coli [1]) is reported as 8 µg/mL (≈ 24.4 µM), the Ratio (Escherichia coli [2]) is reported as >8 and the Ratio (Escherichia coli [3]) is reported as >32. The MIC (Escherichia coli [4]) was > 256 µg/mL, the MIC (Staphylococcus aureus) was 2 µg/mL (≈ 6.11 µM) and the MIC (Escherichia coli [5]) was 32 µg/mL.

In the case of `O=C1O[C@@H](CO)CN1c1ccc(-c2ccc(F)c(O)c2)[n+]([O-])c1`, the MIC (Escherichia coli [4]) is reported as > 256 µg/mL and the MIC (Staphylococcus aureus) is reported as 64 µg/mL (≈ 200 µM).

In the case of `O=C1O[C@@H](CO)CN1c1ccc(-c2ccc([N+](=O)[O-])c(O)c2)c(F)c1`, the Ratio (Escherichia coli [2]) is reported as 1 and the Ratio (Escherichia coli [3]) is reported as 1.

In the case of `NCc1ccc(-c2ccc(N3C[C@H](Cn4nncc4O)OC3=O)cc2F)cc1`, the MIC (Escherichia coli [4]) is reported as > 64 µg/mL and the MIC (Staphylococcus aureus) is reported as > 64 µg/mL.

For `N#Cc1cc(O)cc(-c2ccc(N3C[C@H](Cn4ccnn4)OC3=O)cc2F)c1`, the MIC (Escherichia coli [1]) was 64 µg/mL (≈ 169 µM), the Ratio (Escherichia coli [2]) was >2 and the Ratio (Escherichia coli [3]) was >4. For the same molecule, the MIC (Escherichia coli [4]) was > 256 µg/mL, the MIC (Staphylococcus aureus) was 8 µg/mL (≈ 21.1 µM) and the MIC (Escherichia coli [5]) was 128 µg/mL.

`N#Cc1cc(O)cc(-c2ccc(N3C[C@H](Cn4nccn4)OC3=O)cc2F)c1` was tested, and the MIC (Escherichia coli [1]) was 64 µg/mL (≈ 169 µM), the Ratio (Escherichia coli [2]) was >4 and the Ratio (Escherichia coli [3]) was >4. For the same molecule, the MIC (Escherichia coli [4]) was > 256 µg/mL, the MIC (Staphylococcus aureus) was 32 µg/mL (≈ 84.4 µM) and the MIC (Escherichia coli [5]) was 64 µg/mL.

`NCc1ccc(-c2ccc(N3C[C@H](Cn4cc(CN)nn4)OC3=O)cc2F)cc1` was tested, and the MIC (Escherichia coli [1]) was 128 µg/mL (≈ 323 µM), the Ratio (Escherichia coli [2]) was >2 and the Ratio (Escherichia coli [3]) was >2. The MIC (Escherichia coli [4]) was > 256 µg/mL, the MIC (Staphylococcus aureus) was 8 µg/mL (≈ 20.2 µM) and the MIC (Escherichia coli [5]) was 128 µg/mL.

`CC(=O)NC[C@H]1CN(c2ccc(-c3ccnc(N)c3)c(F)c2)C(=O)O1` gave an MIC (Escherichia coli [1]) of 8 µg/mL (≈ 23.2 µM), a Ratio (Escherichia coli [2]) of 4 and a Ratio (Escherichia coli [3]) of 16. The MIC (Escherichia coli [4]) was 128 µg/mL (≈ 372 µM), the MIC (Staphylococcus aureus) was 2 µg/mL (≈ 5.81 µM) and the MIC (Escherichia coli [5]) was 32 µg/mL.

With `O=C1O[C@@H](CO)CN1c1ccc(O)c(F)c1` the MIC (Escherichia coli [4]) was > 256 µg/mL and the MIC (Staphylococcus aureus) was > 64 µg/mL.

For `N/C(=N\O)c1ccc(-c2ccc(N3C[C@H](CNC(=O)C(F)(F)F)OC3=O)cc2F)cc1O`, the MIC (Escherichia coli [4]) was > 256 µg/mL and the MIC (Staphylococcus aureus) was > 64 µg/mL.

`CC(=O)NC[C@H]1CN(c2ccc(N3CCOCC3)c(F)c2)C(=O)O1` [LINEZOLID] was tested, and the MIC (Escherichia coli [1]) was 11 µg/mL (≈ 32.6 µM), the Ratio (Escherichia coli [2]) was 3.6 and the IC50 (Bacterial 70S ribosome) was 23.7 µM. For the same molecule, the Ratio (Escherichia coli [3]) was 12, the MIC (Escherichia coli [4]) was 130 µg/mL (≈ 385 µM) and the MIC (Staphylococcus aureus) was 3.1 µg/mL (≈ 9.19 µM). The MIC (Escherichia coli [5]) was 36 µg/mL.
